One block for each compound: values may come before it.
Biological target: T1, Axl (Homo sapiens, UniProt P30530)
T1 construct: endogenous in cells; host or cells: HeLa cells
T1 sequence (P30530 26-894): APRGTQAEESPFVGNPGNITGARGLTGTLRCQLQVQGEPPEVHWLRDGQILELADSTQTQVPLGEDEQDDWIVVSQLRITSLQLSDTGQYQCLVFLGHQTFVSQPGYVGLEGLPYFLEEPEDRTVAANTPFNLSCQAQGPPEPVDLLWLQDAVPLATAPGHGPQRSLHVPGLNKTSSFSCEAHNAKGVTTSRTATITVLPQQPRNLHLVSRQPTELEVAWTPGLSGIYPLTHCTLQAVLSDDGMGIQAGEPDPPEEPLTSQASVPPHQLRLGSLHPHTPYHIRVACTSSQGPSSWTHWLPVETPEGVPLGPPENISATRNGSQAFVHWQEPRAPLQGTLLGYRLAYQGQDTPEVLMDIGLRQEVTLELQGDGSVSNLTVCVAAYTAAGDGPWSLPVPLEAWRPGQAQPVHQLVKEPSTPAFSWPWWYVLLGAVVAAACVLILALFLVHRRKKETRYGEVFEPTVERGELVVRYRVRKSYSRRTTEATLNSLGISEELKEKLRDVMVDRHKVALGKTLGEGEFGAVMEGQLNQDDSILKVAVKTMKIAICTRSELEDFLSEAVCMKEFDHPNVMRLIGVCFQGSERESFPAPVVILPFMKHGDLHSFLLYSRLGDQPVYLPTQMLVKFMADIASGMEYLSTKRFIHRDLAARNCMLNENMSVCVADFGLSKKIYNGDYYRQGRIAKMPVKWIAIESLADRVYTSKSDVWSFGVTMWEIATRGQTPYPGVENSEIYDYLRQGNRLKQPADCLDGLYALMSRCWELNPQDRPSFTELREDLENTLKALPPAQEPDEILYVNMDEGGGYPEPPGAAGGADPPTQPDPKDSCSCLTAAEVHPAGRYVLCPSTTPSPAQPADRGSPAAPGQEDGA
Assay: Phospho-Akt in-cell Western assay
Assay type: cell-based
Settings: Hela cells, Axl antibody cross-linking stimulation, phospho-Akt readout
Method: Phospho-Akt in-Cell Western Assay
The compounds of the invention were tested in the following assay for their ability to inhibit Axl activity.
• Cell culture plate: 96 well assay plate (Corning 3610), white, clear bottom, tissue-culture treated. • Cells: Hela cells. • Starvation medium: For Axl stimulation: 0.5% FCS (fetal calf serum) in DMEM, plus Axl/Fc (extracellular domain of AXL fused to immunoglobulin Fc region) (R&D, 154-AL) 500 ng/mL. • For EGF (epidermal growth factor) stimulation: 0.5% FCS in DMEM (Dulbecco's modified Eagles medium). • Poly-L-Lysine 0.01% solution (the working solution): 10 μg/ml, dilute In PBS (phosphate buffered saline). • Axl antibody cross-linking: • 1st: Mouse anti-Axl (R&D, MAB154). • 2nd: Biotin-SP-conjugated AffiniPure goat anti-mouse IgG (H+L) (Jackson ImmunoResearch #115-065-003). • Fixing buffer: 4% formaldehyde in PBS. • Wash buffer: 0.1% TritonX-100 in PBS. • Quenching buffer: 3% H2O2, 0.1% Azide in wash buffer, Azide and hydrogen peroxide (H2O2) are added fresh. • Blocking buffer: 5% BSA in TBST (tris buffered saline plus 0.1% Tween 20). • Primary antibody: Rabbit anti-human Phospho-Akt antibody (Cell Signaling 9271): 1×250 diluted in blocking buffer. • Secondary antibody: HRP (horse radish peroxidase)-conjugated Goat anti-Rabbit secondary, stock solution: Jackson ImmunoResearch (Goat anti-Rabbit HRP, #111-035-144) 1:1 diluted in glycerol, store at −20° C. The working solution: 1×2000 dilution of stock in blocking buffer. • Chemiluminescent working solution (Pierce, 37030): SuperSignal ELISA (enzyme linked immunosorbant assay) Pico Chemiluminescent substrate. • Crystal Violet solution: Stock: 2.5% Crystal violet in methanol, filtered and kept at ambient temperature. The working solution: dilute the stock 1:20 with PBS immediately before use. • 10% SDS: working solution: 5% SDS (sodium dodecylsulfate), diluted in PBS Methods: Day 1:
A 96 well TC (tissue culture treated) plate was coated with 10 μg/mL poly-L-Lysine at 37° C. for 30 min, washed twice with PBS, and air-dried for 5 minutes before cells were added. Hela cells were seeded at 10,000 cells/well and the cells were starved in 100 μL starvation medium containing Axl/Fc for 24 hrs.
The cells were pre-treated with test compounds by adding 100 μL of 2× test compound to the starvation medium on the cells. The cells were incubated at 37° C. for 1 hr before stimulation.
The cells were stimulated by Axl-antibody cross-linking as follows: A 5×1st/2nd Axl antibody mixture was made (37.5 μg/mL 1st/100 μg/mL 2nd) in starvation medium and nutated at 4° C. with thorough mixing for 1-2 hours for clustering. The resulting mix was warmed to 37° C. 50 μL of 5× Axl 1st/2nd of antibody cluster was added to the cells and the cells were incubated at 37° C. for 5 min.
After 5 minutes stimulation, the plate was flicked to remove medium and the plate was tapped onto paper towels. Formaldehyde (4.0% in PBS, 100 μL) was added to fix the cells and the cells were incubated at ambient temperature for 20 min without shaking.
The cells were washed with a plate washer buffer to remove the formaldehyde solution. The plate was flicked to removed excess wash buffer and tapped onto paper towels. Quenching buffer (100 μL) was added to each well and the cells were incubated at ambient temperature for 20 minutes without shaking.
The cells were washed with a plate washer buffer to remove the quenching buffer. Blocking buffer (100 μL) was added and the cells were incubated at ambient temperature for at least an hour with gentle shaking.
The cells were washed with a plate washer buffer and diluted primary antibody (50 μL) was added to each well (blocking buffer was added to the negative control wells instead). The plates were incubated overnight at 4° C. with gentle shaking.
The wash buffer was removed, diluted secondary antibody (100 μL) was added, and the cells were incubated at ambient temperature for 1 hour with gentle shaking. […]

Compound: Cc1cc(F)ccc1-c1nnc(-n2nc(Nc3ccc4c(c3)CCC(N3CCCC3)CC4)nc2N)c2c1C1CCC2CC1 (centres unmarked) [Compound 33, 1-(4-(4-fluoro-2-methylphenyl)-5,8-ethano-5,6,7,8-tetrahydrophthalazine-1-yl)-N^3-(7-(pyrrolidin-1-yl)-6,7,8,9-tetrahydro-5H-benzo[7]annulene-2-yl)-1H-1,2,4-triazole-3,5-diamine]
IC50 (Table 8, formula (VI)): < 1 µM

Compound: Nc1nc(Nc2ccc(N3CCC(N4CCCC4)CC3)c(F)c2)nn1-c1nnc(-c2ccccc2Cl)c2c1C1CCC2CC1 [Compound 15, 1-(4-(2-chlorophenyl)-5,8-ethano-5,6,7,8-tetrahydrophthalazine-1-yl)-N^3-(4-(4-(pyrrolidin-1-yl)piperidinyl)-3-fluorophenyl)-1H-1,2,4-triazole-3,5-diamine]
IC50 (Table 5, formula (IVa)): < 1 µM

Compound: Nc1nc(Nc2ccc3c(c2)CCC(N2CCCC2)CC3)nn1-c1nnc(-c2ccncc2)c2c1C1CCC2CC1 (centres unmarked) [Compound 34, 1-(4-(pyridin-4-yl)-5,8-ethano-5,6,7,8-tetrahydrophthalazine-1-yl)-N^3-(7-(pyrrolidin-1-yl)-6,7,8,9-tetrahydro-5H-benzo[7]annulene-2-yl)-1H-1,2,4-triazole-3,5-diamine]
IC50 (Table 8, formula (VI)): < 1 µM

Compound: Nc1nc(Nc2ccc(N3CCC(N4CCCC4)CC3)c(F)c2)nn1-c1nc2c(c(-c3ccccc3)n1)CCCC2 [Compound 42, 1-(4-phenyl-5,6,7,8-tetrahydroquinazoline-2-yl)-N^3-(4-(4-(pyrrolidin-1-yl)piperidinyl)-3-fluorophenyl)-1H-1,2,4-triazole-3,5-diamine]
IC50 (Table 9, formula (VII)): < 1 µM

Compound: Nc1nc(Nc2ccc(N3CCC(N4CCCC4)CC3)c(F)c2)nn1-c1nnc(Cl)c2c1C1CCC2CC1 [Compound 13, 1-(4-chloro-5,8-ethano-5,6,7,8-tetrahydrophthalazine-1-yl)-N^3-(4-(4-(pyrrolidin-1-yl)piperidinyl)-3-fluorophenyl)-1H-1,2,4-triazole-3,5-diamine]
IC50 (Table 5, formula (IVa)): < 1 µM

Compound: Nc1nc(Nc2ccc(N3CCC(N4CCCC4)CC3)c(F)c2)nn1-c1nnc(-c2ccncc2)c2c1C1CCC2CC1 [Compound 18, 1-(4-(pyridin-4-yl)-5,8-ethano-5,6,7,8-tetrahydrophthalazine-1-yl)-N^3-(4-(4-(pyrrolidin-1-yl)piperidinyl)-3-fluorophenyl)-1H-1,2,4-triazole-3,5-diamine]
IC50 (Table 5, formula (IVa)): < 1 µM

Compound: Nc1nc(Nc2ccc3c(c2)CCC(N2CCCC2)CC3)nn1-c1nnc(Cl)c2c1C1CCC2CC1 (centres unmarked) [Compound 27, 1-(4-chloro-5,8-ethano-5,6,7,8-tetrahydrophthalazine-1-yl)-N^3-(7-(pyrrolidin-1-yl)-6,7,8,9-tetrahydro-5H-benzo[7]annulene-2-yl)-1H-1,2,4-triazole-3,5-diamine]
IC50 (Table 8, formula (VI)): < 1 µM

Compound: Nc1nc(Nc2ccc(N3CCC(N4CCCC4)CC3)c(F)c2)n(-c2nnc(Cl)c3c2C2CCC3CC2)n1 [Compound 14, 1-(4-chloro-5,8-ethano-5,6,7,8-tetrahydrophthalazine-1-yl)-N^5-(4-(4-(pyrrolidin-1-yl)piperidinyl)-3-fluorophenyl)-1H-1,2,4-triazole-3,5-diamine]
IC50 (Table 6, formula (IVb)): 1 to 10 µM

Compound: CC(C)N[C@H]1CCc2ccc(Nc3nc(N)n(-c4cc(-c5ccccc5)c5c(n4)C4CCN5CC4)n3)cc2CC1 [Compound 37, (7S)-1-(1,4-ethano-8-phenyl-1,2,3,4-tetrahydro-1,5-naphthyridin-6-yl)-N^3-(7-(isopropylamino)-6,7,8,9-tetrahydro-5H-benzo[7]annulene-2-yl)-1H-1,2,4-triazole-3,5-diamine]
IC50 (Table 4, formula (III)): < 1 µM

Next, values leading:

IC50 (Table 4, formula (III)): < 1 µM
Compound: CCCN(CCC)[C@H]1CCc2ccc(Nc3nc(N)n(-c4cc(-c5ccccc5)c5c(n4)C4CCN5CC4)n3)cc2CC1 [Compound 39, (7S)-1-(1,4-ethano-8-phenyl-1,2,3,4-tetrahydro-1,5-naphthyridin-6-yl)-N^3-(7-(dipropylamino)-6,7,8,9-tetrahydro-5H-benzo[7]annulene-2-yl)-1H-1,2,4-triazole-3,5-diamine]

IC50 (Table 1, formula (Ia)): < 1 µM
Compound: Nc1nc(Nc2cnc3c(c2)CC(NC2CCCC2)CC3)nn1-c1cc(-c2ccccc2)c2c(n1)C1CCN2CC1 (centres unmarked) [Compound 5, 1-(1,4-ethano-8-phenyl-1,2,3,4-tetrahydro-1,5-naphthyridin-6-yl)-N^3-(6-(cyclopentylamino)-5,6,7,8-tetrahydroquinoline-3-yl)-1H-1,2,4-triazole-3,5-diamine]

IC50 (Table 8, formula (VI)): < 1 µM
Compound: N#Cc1cccc(-c2nnc(-n3nc(Nc4ccc5c(c4)CCC(N4CCCC4)CC5)nc3N)c3c2C2CCC3CC2)c1 (centres unmarked) [Compound 31, 1-(4-(3-cyanophenyl)-5,8-ethano-5,6,7,8-tetrahydrophthalazine-1-yl)-N^3-(7-(pyrrolidin-1-yl)-6,7,8,9-tetrahydro-5H-benzo[7]annulene-2-yl)-1H-1,2,4-triazole-3,5-diamine]

IC50 (Table 4, formula (III)): < 1 µM
Compound: Nc1nc(Nc2ccc3c(c2)CC[C@@H](NC2CCC2)CC3)nn1-c1cc(-c2ccccc2)c2c(n1)C1CCN2CC1 [Compound 38, (7S)-1-(1,4-ethano-8-phenyl-1,2,3,4-tetrahydro-1,5-naphthyridin-6-yl)-N^3-(7-(cyclobutylamino)-6,7,8,9-tetrahydro-5H-benzo[7]annulene-2-yl)-1H-1,2,4-triazole-3,5-diamine]

IC50 (Table 3, formula (II)): < 1 µM
Compound: Nc1nc(Nc2ccc(N3CCC(N4CCCC4)CC3)c(F)c2)nn1-c1cc(-c2ccccc2)c2c(n1)C1CCN(CC1)C2 [Compound 7, 1-(6,9-ethano-4-phenyl-6,7,8,9-tetrahydro-5H-pyrido[3,2-c]azepin-2-yl)-N^3-(4-(4-(pyrrolidin-1-yl)piperidinyl)-3-fluorophenyl)-1H-1,2,4-triazole-3,5-diamine]
